Measurements published in the supplement of paper PMC10733146.

Assays:
Experiment in all cases: viability relative to DMSO control (fraction); higher = less drug effect (more viable cells)
Conditions in all cases: 48 h
[1] = tested on: primary AML patient cells (S055)
How it was run: (§1)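 Cells were incubated for 48 h at 37 °C and 5% CO2 in RPMI-1640 with penicillin/streptomycin, L-glutamine and human serum, at 4 × 10^4 cells per well in 384-well plates with compounds pre-plated at five concentrations, one well each. These were primary mononuclear tumour cells, fresh or cryopreserved, Ficoll-isolated from blood or bone marrow or obtained from processed lymph node. Viability values are CellTiter-Glo luminescence relative to the median of 16 inner DMSO wells.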

[2] = tested on: primary AML patient cells (S072)
How it was run: as §1

[3] = tested on: primary MCL patient cells (S068)
How it was run: as §1

[4] = tested on: primary BL patient cells (S005)
How it was run: as §1

[5] = tested on: primary AML patient cells (S056)
How it was run: as §1

[6] = tested on: primary FL patient cells (S087)
How it was run: as §1

[7] = tested on: primary ALL patient cells (S048)
How it was run: as §1

[8] = tested on: primary AML patient cells (S009)
How it was run: as §1

[9] = tested on: primary ALL patient cells (S088)
How it was run: as §1

[10] = tested on: primary FL patient cells (S022)
How it was run: as §1

[11] = tested on: primary B-PLL patient cells (S016)
How it was run: as §1

[12] = tested on: primary AML patient cells (S060)
How it was run: as §1

[13] = tested on: primary CLL patient cells (S031)
How it was run: as §1

[14] = tested on: primary T-PLL patient cells (S008)
How it was run: as §1

[15] = tested on: primary MCL patient cells (S041)
How it was run: as §1

[16] = tested on: primary AML patient cells (S071)
How it was run: as §1

[17] = tested on: primary MCL patient cells (S053)
How it was run: as §1

[18] = tested on: primary DLBCL patient cells (S082)
How it was run: as §1

[19] = tested on: primary MCL patient cells (S063)
How it was run: as §1

[20] = tested on: primary AML patient cells (S079)
How it was run: as §1

N#Cc1ccnc(N2C(=O)CC[C@H]2C(=O)N(c2cncc(F)c2)[C@H](C(=O)NC2CC(F)(F)C2)c2ccccc2Cl)c1 [AG-120]
viability ([1]; 0.024 µM): 1.11
viability ([1]; 0.12 µM): 1.13
viability ([1]; 0.6 µM): 1.01
viability ([1]; 3 µM): 1.09
viability ([1]; 15 µM): 0.964
viability ([2]; 0.024 µM): 0.983
viability ([2]; 0.12 µM): 1.1
viability ([2]; 0.6 µM): 0.87
viability ([2]; 3 µM): 0.919
viability ([2]; 15 µM): 0.799
viability ([3]; 0.024 µM): 0.995
viability ([3]; 0.12 µM): 1.02
viability ([3]; 0.6 µM): 0.898
viability ([3]; 3 µM): 1.05
viability ([3]; 15 µM): 1.18
viability ([4]; 0.024 µM): 0.99
viability ([4]; 0.12 µM): 1.02
viability ([4]; 0.6 µM): 1.43
viability ([4]; 3 µM): 1.01
viability ([4]; 15 µM): 1.31
viability ([5]; 0.024 µM): 0.866
viability ([5]; 0.12 µM): 0.833
viability ([5]; 0.6 µM): 0.72
viability ([5]; 3 µM): 0.74
viability ([5]; 15 µM): 0.577
viability ([6]; 0.024 µM): 0.946
viability ([6]; 0.12 µM): 0.984
viability ([6]; 0.6 µM): 0.911
viability ([6]; 3 µM): 1.01
viability ([6]; 15 µM): 0.892
viability ([7]; 0.024 µM): 0.828
viability ([7]; 0.12 µM): 0.865
viability ([7]; 0.6 µM): 0.735
viability ([7]; 3 µM): 1.01
viability ([7]; 15 µM): 0.745
viability ([8]; 0.024 µM): 0.974
viability ([8]; 0.12 µM): 0.96
viability ([8]; 0.6 µM): 1.04
viability ([8]; 3 µM): 0.943
viability ([8]; 15 µM): 0.915
viability ([9]; 0.024 µM): 0.727
viability ([9]; 0.12 µM): 0.745
viability ([9]; 0.6 µM): 0.533
viability ([9]; 3 µM): 0.7
viability ([9]; 15 µM): 0.499
viability ([10]; 0.024 µM): 0.858
viability ([10]; 0.12 µM): 0.833
viability ([10]; 0.6 µM): 0.838
viability ([10]; 3 µM): 0.905
viability ([10]; 15 µM): 0.777
viability ([11]; 0.024 µM): 1.16
viability ([11]; 0.12 µM): 1.18
viability ([11]; 0.6 µM): 1
viability ([11]; 3 µM): 1.12
viability ([11]; 15 µM): 0.86
viability ([12]; 0.024 µM): 1.05
viability ([12]; 0.12 µM): 1.1
viability ([12]; 0.6 µM): 0.937
viability ([12]; 3 µM): 1.16
viability ([12]; 15 µM): 0.938
viability ([13]; 0.024 µM): 0.982
viability ([13]; 0.12 µM): 0.912
viability ([13]; 0.6 µM): 0.773
viability ([13]; 3 µM): 0.807
viability ([13]; 15 µM): 0.715
viability ([14]; 0.024 µM): 1.04
viability ([14]; 0.12 µM): 1.09
viability ([14]; 0.6 µM): 1.03
viability ([14]; 3 µM): 1.04
viability ([14]; 15 µM): 1.02
viability ([15]; 0.024 µM): 0.99
viability ([15]; 0.12 µM): 1.01
viability ([15]; 0.6 µM): 0.928
viability ([15]; 3 µM): 1
viability ([15]; 15 µM): 0.886
viability ([16]; 0.024 µM): 1.03
viability ([16]; 0.12 µM): 1.05
viability ([16]; 0.6 µM): 0.922
viability ([16]; 3 µM): 0.919
viability ([16]; 15 µM): 0.751
viability ([17]; 0.024 µM): 0.945
viability ([17]; 0.12 µM): 0.911
viability ([17]; 0.6 µM): 0.593
viability ([17]; 3 µM): 0.887
viability ([17]; 15 µM): 0.641
viability ([18]; 0.024 µM): 1.03
viability ([18]; 0.12 µM): 1.06
viability ([18]; 0.6 µM): 0.895
viability ([18]; 3 µM): 1.05
viability ([18]; 15 µM): 0.935
viability ([19]; 0.024 µM): 1.16
viability ([19]; 0.12 µM): 1.1
viability ([19]; 0.6 µM): 0.929
viability ([19]; 3 µM): 1.15
viability ([19]; 15 µM): 0.789
viability ([20]; 0.024 µM): 0.978
viability ([20]; 0.12 µM): 0.983
viability ([20]; 0.6 µM): 0.879
viability ([20]; 3 µM): 0.959
viability ([20]; 15 µM): 0.844

O=C(Nc1cccc(C(F)(F)F)c1)Nc1cc(S(=O)(=O)NC2CC2)ccc1-c1ccsc1 [AGI-6780]
viability ([1]; 0.024 µM): 0.912
viability ([1]; 0.12 µM): 0.919
viability ([1]; 0.6 µM): 0.874
viability ([1]; 3 µM): 0.859
viability ([1]; 15 µM): 0.85
viability ([2]; 0.024 µM): 0.98
viability ([2]; 0.12 µM): 0.904
viability ([2]; 0.6 µM): 0.884
viability ([2]; 3 µM): 0.764
viability ([2]; 15 µM): 0.769
viability ([3]; 0.024 µM): 0.751
viability ([3]; 0.12 µM): 0.809
viability ([3]; 0.6 µM): 0.786
viability ([3]; 3 µM): 0.722
viability ([3]; 15 µM): 0.798
viability ([4]; 0.024 µM): 0.818
viability ([4]; 0.12 µM): 0.915
viability ([4]; 0.6 µM): 0.932
viability ([4]; 3 µM): 0.778
viability ([4]; 15 µM): 0.886
viability ([5]; 0.024 µM): 1.03
viability ([5]; 0.12 µM): 0.821
viability ([5]; 0.6 µM): 0.834
viability ([5]; 3 µM): 0.783
viability ([5]; 15 µM): 0.7
viability ([6]; 0.024 µM): 0.891
viability ([6]; 0.12 µM): 0.944
viability ([6]; 0.6 µM): 0.923
viability ([6]; 3 µM): 0.906
viability ([6]; 15 µM): 0.798
viability ([7]; 0.024 µM): 0.7
viability ([7]; 0.12 µM): 0.636
viability ([7]; 0.6 µM): 0.599
viability ([7]; 3 µM): 0.622
viability ([7]; 15 µM): 0.61
viability ([8]; 0.024 µM): 0.807
viability ([8]; 0.12 µM): 0.796
viability ([8]; 0.6 µM): 0.875
viability ([8]; 3 µM): 0.834
viability ([8]; 15 µM): 0.749
viability ([9]; 0.024 µM): 0.408
viability ([9]; 0.12 µM): 0.417
viability ([9]; 0.6 µM): 0.322
viability ([9]; 3 µM): 0.258
viability ([9]; 15 µM): 0.205
viability ([10]; 0.024 µM): 0.826
viability ([10]; 0.12 µM): 0.782
viability ([10]; 0.6 µM): 0.821
viability ([10]; 3 µM): 0.835
viability ([10]; 15 µM): 0.775
viability ([11]; 0.024 µM): 0.776
viability ([11]; 0.12 µM): 0.947
viability ([11]; 0.6 µM): 0.954
viability ([11]; 3 µM): 0.851
viability ([11]; 15 µM): 0.981
viability ([12]; 0.024 µM): 0.963
viability ([12]; 0.12 µM): 1
viability ([12]; 0.6 µM): 0.991
viability ([12]; 3 µM): 0.886
viability ([12]; 15 µM): 0.91
viability ([13]; 0.024 µM): 0.679
viability ([13]; 0.12 µM): 0.703
viability ([13]; 0.6 µM): 0.727
viability ([13]; 3 µM): 0.701
viability ([13]; 15 µM): 0.612
viability ([14]; 0.024 µM): 0.865
viability ([14]; 0.12 µM): 0.979
viability ([14]; 0.6 µM): 0.937
viability ([14]; 3 µM): 0.863
viability ([14]; 15 µM): 0.825
viability ([15]; 0.024 µM): 0.913
viability ([15]; 0.12 µM): 0.898
viability ([15]; 0.6 µM): 0.856
viability ([15]; 3 µM): 0.868
viability ([15]; 15 µM): 0.806
viability ([16]; 0.024 µM): 0.803
viability ([16]; 0.12 µM): 0.828
viability ([16]; 0.6 µM): 0.826
viability ([16]; 3 µM): 0.78
viability ([16]; 15 µM): 0.607
viability ([17]; 0.024 µM): 0.741
viability ([17]; 0.12 µM): 0.807
viability ([17]; 0.6 µM): 0.851
viability ([17]; 3 µM): 0.788
viability ([17]; 15 µM): 0.88
viability ([18]; 0.024 µM): 0.796
viability ([18]; 0.12 µM): 0.96
viability ([18]; 0.6 µM): 0.91
viability ([18]; 3 µM): 0.905
viability ([18]; 15 µM): 0.983
viability ([19]; 0.024 µM): 0.935
viability ([19]; 0.12 µM): 0.969
viability ([19]; 0.6 µM): 0.96
viability ([19]; 3 µM): 0.843
viability ([19]; 15 µM): 0.982
viability ([20]; 0.024 µM): 0.935
viability ([20]; 0.12 µM): 0.943
viability ([20]; 0.6 µM): 0.925
viability ([20]; 3 µM): 0.887
viability ([20]; 15 µM): 0.802
